These are literature values, as cited in patent US20260124292A1, “MU[…] INFLUENZA VACCINE” (priority 2022, published 2026).

This data set deals with influenza A virus-specific CTL. The note with it: according to Boon et al. 2006.
For CTELKLSDY [SEQ ID NO: 4], the Immunodominance entry is recorded as “(Intermediate”.

As to “ELRSRYWAI (listed as Alphainfluenzavirus influenzae) [SEQ ID NO: 2]”, the Immunodominance result was “(Intermediate”.

As to “RRSGAAGAAVK (listed as Alphainfluenzavirus influenzae) [SEQ ID NO: 16]”, the Immunodominance result is “(Highly”.

Consider “SRYWAIRTR (listed as Alphainfluenzavirus influenzae) [SEQ ID NO: 3]”, for which the Immunodominance result is reported as “(Highly”.
